Measured values taken from BindingDB's records for doi:10.1016/j.bmcl.2008.08.104 (Genomics Institute of The Novartis Research Foundation, 2008).
pIC50: −log10 of the molar value.

Tests used:
[1] = Inhibition of TEL fused Lck-mediated proliferation of TEL-Lck transformed mouse BA/F3 cells after 48 hrs by bright-glo luciferase assay
[2] = Inhibition of TEL fused Src-mediated proliferation of TEL-Src transformed mouse BA/F3 cells after 48 hrs by bright-glo luciferase assay
[3] = Inhibition of TEL fused InsR-mediated proliferation of TEL-InsR transformed mouse BA/F3 cells after 48 hrs by bright-glo luciferase assay
[4] = Inhibition of TEL fused KDR-mediated proliferation of TEL-KDR transformed mouse BA/F3 cells after 48 hrs by bright-glo luciferase assay
[5] = Inhibition of TEL fused Lyn-mediated proliferation of TEL-Lyn transformed mouse BA/F3 cells after 48 hrs by bright-glo luciferase assay

pIC50 [1] | Structure (SMILES) | further results
< 5.00 | Cc1cccc(Cl)c1Nc1nc2ccccc2n1-c1cc(N2CCOCC2)ncn1 [N-(2-chloro-6-methylphenyl)-1-(6-morpholinopyrimidin-4-yl)-1H-benzo[d]imidazol-2-amine] | 
< 5.00 | Cc1cccc(Cl)c1Nc1nc2ccccc2n1-c1cc(NN2CCOCC2)ncn1 [N-(2-chloro-6-methylphenyl)-1-(6-(morpholinoamino)pyrimidin-4-yl)-1H-benzo[d]imidazol-2-amine] | 
5.24 | Cc1cccc(Cl)c1Nc1nc2ccccc2n1-c1cc(Cl)ncn1 [N-(2-chloro-6-methylphenyl)-1-(6-chloropyrimidin-4-yl)-1H-benzo[d]imidazol-2-amine] | 

Second part, the compound before the results:

Structure (SMILES) | pIC50 [1] | further results
Cc1cccc(Cl)c1Nc1nc2ccccc2n1-c1cc(Nc2ncnc(NCCN3CCOCC3)c2C)ncn1 [N4-(6-(2-(2-chloro-6-methylphenylamino)-1H-benzo[d]imidazol-1-yl)pyrimidin-4-yl)-5-methyl-N6-(2-morpholinoethyl)pyrimidine-4,6-diamine] | 6.44 | 
Cc1cccc(Cl)c1Nc1nc2ccccc2n1-c1cc(Nc2cc(CN3CCOCC3)ccn2)ncn1 [N-(2-chloro-6-methylphenyl)-1-(6-(4-(morpholinomethyl)pyridin-2-ylamino)pyrimidin-4-yl)-1H-benzo[d]imidazol-2-amine] | 7.77 | 
CCN(CC)CCCCNc1cc(-n2c(Nc3c(C)cccc3Cl)nc3ccccc32)ncn1 [N-(2-chloro-6-methylphenyl)-1-(6-(4-(diethylamino)butylamino)pyrimidin-4-yl)-1H-benzo[d]imidazol-2-amine] | 5.30 | 
Cc1cc(C)c(Nc2nc3ccccc3n2-c2cc(N)ncn2)c(C)c1 [1-(6-aminopyrimidin-4-yl)-N-mesityl-1H-benzo[d]imidazol-2-amine] | 6.23 | 
Cc1nc(Nc2cc(-n3c(Nc4c(C)cccc4Cl)nc4ccccc43)ncn2)cc(N2CCN(CCO)CC2)n1 [2-(4-(6-(6-(2-(2-chloro-6-methylphenylamino)-1H-benzo[d]imidazol-1-yl)pyrimidin-4-ylamino)-2-methylpyrimidin-4-yl)piperazin-1-yl)ethanol] |  | pIC50 [2]: 8.30; pIC50 [3]: 5.63; pIC50 [4]: 6.45; pIC50 [5]: 7.52
Cc1cccc(Cl)c1Nc1nc2ccccc2n1-c1cc(Nc2ccc(CCN3CCOCC3)cn2)ncn1 [N-(2-chloro-6-methylphenyl)-1-(6-(5-(2-morpholinoethyl)pyridin-2-ylamino)pyrimidin-4-yl)-1H-benzo[d]imidazol-2-amine] |  | pIC50 [2]: 6.83; pIC50 [3]: 5.29; pIC50 [4]: 5.99; pIC50 [5]: 6.67
Cc1cc(C)c(Nc2nc3ccccc3n2-c2cc(N)ncn2)c(Br)c1 [1-(6-aminopyrimidin-4-yl)-N-(2-bromo-4,6-dimethylphenyl)-1H-benzo[d]imidazol-2-amine] | 5.93 | 
